In the kinase profiling compilation of Christmann-Franck et al. (2016):

How the values were obtained:
Test in all cases: KINOMEscan competition binding
Conditions in all cases: compound 10.0 µM
MELK (human) = MELK (human) (UniProt Q14680)
PTK2B (human) = PTK2B (human) (UniProt Q14289)
STK24 (human) = STK24 (human) (UniProt Q9Y6E0)
FES (human) = FES (human) (UniProt P07332)
STK17B (human) = STK17B (human) (UniProt O94768)
STK11 (human) = STK11 (human) (UniProt Q15831)
STK36 (human) = STK36 (human) (UniProt Q9NRP7)
DCLK2 (human) = DCLK2 (human) (UniProt Q8N568)
ACVR1 (human) = ACVR1 (human) (UniProt Q04771)
LATS2 (human) = LATS2 (human) (UniProt Q9NRM7)
MAPK7 (human) = MAPK7 (human) (UniProt Q13164)
CDK15 (human) = CDK15 (human) (UniProt Q96Q40)
CDC42BPB (human) = CDC42BPB (human) (UniProt Q9Y5S2)
PIK3CG (human) = PIK3CG (human) (UniProt P48736)
MAP2K6 (human) = MAP2K6 (human) (UniProt P52564)
PRKCE (human) = PRKCE (human) (UniProt Q02156)
CSNK1A1L (human) = CSNK1A1L (human) (UniProt Q8N752)
FLT4 (human) = FLT4 (human) (UniProt P35916)
EPHB2 (human) = EPHB2 (human) (UniProt P29323)
CSNK2A1 (human) = CSNK2A1 (human) (UniProt P68400)
PDGFRA (human) = PDGFRA (human) (UniProt P16234)
[1] = tested on: PIK3CA (human), P42336 [M1043I]
DYRK1B (human) = DYRK1B (human) (UniProt Q9Y463)
MLTK (human) = MLTK (human) (UniProt Q9NYL2)
STK25 (human) = STK25 (human) (UniProt O00506)
CDK7 (human) = CDK7 (human) (UniProt P50613)
AURKA (human) = AURKA (human) (UniProt O14965)
TEK (human) = TEK (human) (UniProt Q02763)
PRKD1 (human) = PRKD1 (human) (UniProt Q15139)
TBK1 (human) = TBK1 (human) (UniProt Q9UHD2)
PRKG2 (human) = PRKG2 (human) (UniProt Q13237)
PRKACA (human) = PRKACA (human) (UniProt P17612)
MAP4K2 (human) = MAP4K2 (human) (UniProt Q12851)
DMPK (human) = DMPK (human) (UniProt Q09013)
IKBKE (human) = IKBKE (human) (UniProt Q14164)
TNK1 (human) = TNK1 (human) (UniProt Q13470)
MAP4K5 (human) = MAP4K5 (human) (UniProt Q9Y4K4)
EPHA3 (human) = EPHA3 (human) (UniProt P29320)
STK38 (human) = STK38 (human) (UniProt Q15208)
RPS6KA6 KD2 (human) = RPS6KA6 KD2 (human) (UniProt Q9UK32)
NTRK1 (human) = NTRK1 (human) (UniProt P04629)
NEK6 (human) = NEK6 (human) (UniProt Q9HC98)

Sequence of STK36 (human) (Q9NRP7 whole entry, looked up): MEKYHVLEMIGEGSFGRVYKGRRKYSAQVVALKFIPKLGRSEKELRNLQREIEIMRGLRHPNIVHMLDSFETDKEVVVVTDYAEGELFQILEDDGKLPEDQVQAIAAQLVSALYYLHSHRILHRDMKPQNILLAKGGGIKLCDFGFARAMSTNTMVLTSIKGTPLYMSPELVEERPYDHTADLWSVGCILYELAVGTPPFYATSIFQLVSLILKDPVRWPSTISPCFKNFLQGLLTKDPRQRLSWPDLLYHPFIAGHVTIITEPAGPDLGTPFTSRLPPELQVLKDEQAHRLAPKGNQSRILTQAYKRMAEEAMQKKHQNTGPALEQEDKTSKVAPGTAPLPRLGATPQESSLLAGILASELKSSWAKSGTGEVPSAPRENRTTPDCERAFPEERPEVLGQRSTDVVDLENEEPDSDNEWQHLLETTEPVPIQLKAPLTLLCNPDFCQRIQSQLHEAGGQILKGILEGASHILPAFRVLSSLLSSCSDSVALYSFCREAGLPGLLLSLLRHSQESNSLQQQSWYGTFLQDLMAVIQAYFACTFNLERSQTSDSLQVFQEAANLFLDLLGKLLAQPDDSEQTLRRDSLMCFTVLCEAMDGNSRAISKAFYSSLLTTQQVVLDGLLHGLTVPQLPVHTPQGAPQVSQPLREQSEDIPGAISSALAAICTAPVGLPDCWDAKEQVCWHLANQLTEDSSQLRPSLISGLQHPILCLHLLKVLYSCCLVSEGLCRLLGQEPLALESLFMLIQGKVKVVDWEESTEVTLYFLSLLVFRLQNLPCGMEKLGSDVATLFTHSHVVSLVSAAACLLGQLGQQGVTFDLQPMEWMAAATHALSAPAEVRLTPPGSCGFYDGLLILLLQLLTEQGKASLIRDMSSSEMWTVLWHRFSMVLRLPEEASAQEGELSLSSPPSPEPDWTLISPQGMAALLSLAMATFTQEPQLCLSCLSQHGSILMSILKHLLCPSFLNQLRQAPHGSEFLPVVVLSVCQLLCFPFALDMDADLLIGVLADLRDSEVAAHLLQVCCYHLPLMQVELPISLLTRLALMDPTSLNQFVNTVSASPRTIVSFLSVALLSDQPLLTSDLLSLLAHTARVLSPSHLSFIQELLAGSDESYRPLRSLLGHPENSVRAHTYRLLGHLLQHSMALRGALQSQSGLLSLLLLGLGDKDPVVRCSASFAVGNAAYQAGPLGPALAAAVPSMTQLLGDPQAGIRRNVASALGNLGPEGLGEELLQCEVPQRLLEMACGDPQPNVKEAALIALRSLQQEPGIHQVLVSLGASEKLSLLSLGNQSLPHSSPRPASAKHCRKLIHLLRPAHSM
Sequence of TBK1 (human) (Q9UHD2 whole entry, looked up): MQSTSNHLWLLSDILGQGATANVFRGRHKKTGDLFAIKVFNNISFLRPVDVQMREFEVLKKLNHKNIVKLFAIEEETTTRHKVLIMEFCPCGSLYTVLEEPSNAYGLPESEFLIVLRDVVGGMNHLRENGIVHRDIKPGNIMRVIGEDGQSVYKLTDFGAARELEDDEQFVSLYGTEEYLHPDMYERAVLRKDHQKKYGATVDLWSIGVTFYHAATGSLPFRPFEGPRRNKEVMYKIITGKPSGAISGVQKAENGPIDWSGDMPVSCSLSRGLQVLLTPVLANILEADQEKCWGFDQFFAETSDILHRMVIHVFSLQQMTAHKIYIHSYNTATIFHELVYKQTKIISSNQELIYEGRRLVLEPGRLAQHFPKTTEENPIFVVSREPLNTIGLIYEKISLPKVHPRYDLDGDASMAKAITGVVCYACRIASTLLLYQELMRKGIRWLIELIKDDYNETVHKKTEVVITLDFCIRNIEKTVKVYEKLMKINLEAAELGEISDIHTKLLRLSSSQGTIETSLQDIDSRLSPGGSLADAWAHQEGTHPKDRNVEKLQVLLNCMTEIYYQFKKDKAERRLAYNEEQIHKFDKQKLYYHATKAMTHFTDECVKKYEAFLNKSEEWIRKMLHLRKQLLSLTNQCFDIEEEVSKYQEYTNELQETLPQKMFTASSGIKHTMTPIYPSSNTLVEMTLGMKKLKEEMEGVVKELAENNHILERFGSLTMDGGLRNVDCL
Sequence of MAP4K2 (human) (Q12851 whole entry, looked up): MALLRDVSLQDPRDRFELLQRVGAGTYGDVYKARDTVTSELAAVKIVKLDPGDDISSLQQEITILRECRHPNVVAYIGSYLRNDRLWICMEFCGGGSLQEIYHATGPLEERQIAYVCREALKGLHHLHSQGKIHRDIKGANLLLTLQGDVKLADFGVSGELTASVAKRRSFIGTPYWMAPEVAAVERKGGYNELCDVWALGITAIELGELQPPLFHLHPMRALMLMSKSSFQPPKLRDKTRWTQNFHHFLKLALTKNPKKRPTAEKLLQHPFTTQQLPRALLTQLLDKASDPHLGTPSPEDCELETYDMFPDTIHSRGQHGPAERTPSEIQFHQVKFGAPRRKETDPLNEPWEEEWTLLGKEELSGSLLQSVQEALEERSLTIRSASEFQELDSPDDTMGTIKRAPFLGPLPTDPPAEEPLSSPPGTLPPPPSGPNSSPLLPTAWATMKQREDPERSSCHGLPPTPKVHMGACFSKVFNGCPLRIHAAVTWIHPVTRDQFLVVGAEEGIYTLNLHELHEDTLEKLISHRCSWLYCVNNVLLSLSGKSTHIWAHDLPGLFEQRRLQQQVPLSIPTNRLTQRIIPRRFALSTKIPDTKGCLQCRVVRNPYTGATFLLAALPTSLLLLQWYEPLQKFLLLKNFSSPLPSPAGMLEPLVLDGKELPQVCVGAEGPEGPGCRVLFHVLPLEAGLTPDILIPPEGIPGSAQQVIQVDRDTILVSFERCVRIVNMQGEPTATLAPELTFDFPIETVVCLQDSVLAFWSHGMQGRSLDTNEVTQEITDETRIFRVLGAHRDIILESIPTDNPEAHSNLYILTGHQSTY
Sequence of TEK (human) (Q02763 whole entry, looked up): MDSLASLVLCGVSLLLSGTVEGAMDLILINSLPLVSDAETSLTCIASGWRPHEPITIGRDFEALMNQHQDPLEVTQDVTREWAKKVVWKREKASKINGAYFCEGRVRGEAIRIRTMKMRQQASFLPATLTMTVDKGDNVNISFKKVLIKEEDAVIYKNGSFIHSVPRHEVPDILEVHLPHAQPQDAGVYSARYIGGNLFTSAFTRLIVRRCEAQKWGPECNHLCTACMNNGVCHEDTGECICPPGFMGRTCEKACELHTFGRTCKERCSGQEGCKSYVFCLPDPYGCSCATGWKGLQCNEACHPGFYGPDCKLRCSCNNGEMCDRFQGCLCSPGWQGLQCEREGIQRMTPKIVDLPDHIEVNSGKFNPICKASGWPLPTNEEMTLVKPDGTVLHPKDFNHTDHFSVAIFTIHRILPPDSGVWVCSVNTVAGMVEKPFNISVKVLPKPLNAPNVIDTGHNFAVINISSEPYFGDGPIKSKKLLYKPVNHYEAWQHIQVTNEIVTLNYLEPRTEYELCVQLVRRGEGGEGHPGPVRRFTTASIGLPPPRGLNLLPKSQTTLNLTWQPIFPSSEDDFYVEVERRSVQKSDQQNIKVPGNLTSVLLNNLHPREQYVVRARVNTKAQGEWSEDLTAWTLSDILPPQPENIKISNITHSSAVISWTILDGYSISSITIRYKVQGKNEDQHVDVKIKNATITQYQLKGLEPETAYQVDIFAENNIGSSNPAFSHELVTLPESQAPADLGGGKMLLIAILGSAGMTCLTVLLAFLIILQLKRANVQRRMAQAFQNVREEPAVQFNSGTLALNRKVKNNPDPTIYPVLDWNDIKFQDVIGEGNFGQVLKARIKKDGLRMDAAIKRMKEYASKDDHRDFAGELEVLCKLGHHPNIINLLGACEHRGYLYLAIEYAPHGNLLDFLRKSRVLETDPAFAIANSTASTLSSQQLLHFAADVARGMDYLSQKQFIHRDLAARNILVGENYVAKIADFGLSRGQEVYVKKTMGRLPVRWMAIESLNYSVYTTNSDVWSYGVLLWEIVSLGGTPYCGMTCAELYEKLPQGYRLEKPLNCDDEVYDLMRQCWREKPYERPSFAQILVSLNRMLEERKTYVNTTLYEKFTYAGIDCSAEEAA
Sequence of PDGFRA (human) (P16234 whole entry, looked up): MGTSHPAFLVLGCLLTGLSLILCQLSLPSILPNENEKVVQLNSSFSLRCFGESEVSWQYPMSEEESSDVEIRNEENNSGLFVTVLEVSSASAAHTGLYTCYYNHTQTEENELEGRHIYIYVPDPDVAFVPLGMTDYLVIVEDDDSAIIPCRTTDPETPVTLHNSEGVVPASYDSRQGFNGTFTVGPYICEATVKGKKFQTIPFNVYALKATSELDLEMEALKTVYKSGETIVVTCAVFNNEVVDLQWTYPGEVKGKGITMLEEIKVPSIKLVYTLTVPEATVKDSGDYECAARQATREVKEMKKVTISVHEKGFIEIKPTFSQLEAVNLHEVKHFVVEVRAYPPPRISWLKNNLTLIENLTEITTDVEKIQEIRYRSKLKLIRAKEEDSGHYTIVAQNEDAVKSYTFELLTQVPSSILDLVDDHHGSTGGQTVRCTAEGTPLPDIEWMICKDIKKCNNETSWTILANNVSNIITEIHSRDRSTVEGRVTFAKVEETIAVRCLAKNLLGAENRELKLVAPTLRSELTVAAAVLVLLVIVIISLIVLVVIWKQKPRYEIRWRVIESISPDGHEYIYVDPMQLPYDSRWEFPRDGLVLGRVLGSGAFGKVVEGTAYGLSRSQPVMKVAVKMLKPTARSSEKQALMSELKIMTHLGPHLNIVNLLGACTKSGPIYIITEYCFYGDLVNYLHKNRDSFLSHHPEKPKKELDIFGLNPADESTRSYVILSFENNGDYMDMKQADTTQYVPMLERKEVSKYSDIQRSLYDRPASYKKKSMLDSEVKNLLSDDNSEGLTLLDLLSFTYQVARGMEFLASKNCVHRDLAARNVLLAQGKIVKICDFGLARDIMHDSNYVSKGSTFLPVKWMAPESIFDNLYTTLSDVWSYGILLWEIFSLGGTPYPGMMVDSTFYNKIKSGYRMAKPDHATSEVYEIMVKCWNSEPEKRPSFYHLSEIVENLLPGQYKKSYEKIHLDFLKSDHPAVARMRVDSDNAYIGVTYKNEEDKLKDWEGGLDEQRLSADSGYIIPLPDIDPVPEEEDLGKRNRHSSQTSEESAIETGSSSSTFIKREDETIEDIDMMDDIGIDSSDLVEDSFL

COc1ccc(CNC(=O)Nc2ncc([N+](=O)[O-])s2)cc1
kinase still bound, per cent of control (MELK (human)): 63%
kinase still bound, per cent of control (PTK2B (human)): 100%
kinase still bound, per cent of control (STK24 (human)): 84%
kinase still bound, per cent of control (FES (human)): 99%
kinase still bound, per cent of control (STK17B (human)): 74%
kinase still bound, per cent of control (STK11 (human)): 83%
kinase still bound, per cent of control (STK36 (human)): 100%
kinase still bound, per cent of control (DCLK2 (human)): 100%
kinase still bound, per cent of control (ACVR1 (human)): 98%
kinase still bound, per cent of control (LATS2 (human)): 100%
kinase still bound, per cent of control (MAPK7 (human)): 97%
kinase still bound, per cent of control (CDK15 (human)): 100%
kinase still bound, per cent of control (CDC42BPB (human)): 75%
kinase still bound, per cent of control (PIK3CG (human)): 100%
kinase still bound, per cent of control (MAP2K6 (human)): 98%
kinase still bound, per cent of control (PRKCE (human)): 100%
kinase still bound, per cent of control (CSNK1A1L (human)): 99%
kinase still bound, per cent of control (FLT4 (human)): 100%
kinase still bound, per cent of control (EPHB2 (human)): 15%
kinase still bound, per cent of control (CSNK2A1 (human)): 100%
kinase still bound, per cent of control (PDGFRA (human)): 100%
kinase still bound, per cent of control [1]: 100%
kinase still bound, per cent of control (DYRK1B (human)): 100%
kinase still bound, per cent of control (MLTK (human)): 100%
kinase still bound, per cent of control (STK25 (human)): 100%
kinase still bound, per cent of control (CDK7 (human)): 100%
kinase still bound, per cent of control (AURKA (human)): 84%
kinase still bound, per cent of control (TEK (human)): 78%
kinase still bound, per cent of control (PRKD1 (human)): 69%
kinase still bound, per cent of control (TBK1 (human)): 100%
kinase still bound, per cent of control (PRKG2 (human)): 100%
kinase still bound, per cent of control (PRKACA (human)): 96%
kinase still bound, per cent of control (MAP4K2 (human)): 100%
kinase still bound, per cent of control (DMPK (human)): 100%
kinase still bound, per cent of control (IKBKE (human)): 88%
kinase still bound, per cent of control (TNK1 (human)): 100%
kinase still bound, per cent of control (MAP4K5 (human)): 100%
kinase still bound, per cent of control (EPHA3 (human)): 100%
kinase still bound, per cent of control (STK38 (human)): 100%

Cc1cnc(-c2cnc(NCCNc3ccc(C#N)cn3)nc2-c2ccc(Cl)cc2Cl)[nH]1
kinase still bound, per cent of control (MELK (human)): 40%
kinase still bound, per cent of control (PTK2B (human)): 100%
kinase still bound, per cent of control (STK24 (human)): 97%
kinase still bound, per cent of control (RPS6KA6 KD2 (human)): 83%
kinase still bound, per cent of control (FES (human)): 100%
kinase still bound, per cent of control (NTRK1 (human)): 100%
kinase still bound, per cent of control (STK17B (human)): 84%
kinase still bound, per cent of control (STK11 (human)): 100%
kinase still bound, per cent of control (STK36 (human)): 42%
kinase still bound, per cent of control (DCLK2 (human)): 100%
kinase still bound, per cent of control (ACVR1 (human)): 100%
kinase still bound, per cent of control (LATS2 (human)): 100%
kinase still bound, per cent of control (MAPK7 (human)): 100%
kinase still bound, per cent of control (CDK15 (human)): 95%
kinase still bound, per cent of control (CDC42BPB (human)): 100%
kinase still bound, per cent of control (PIK3CG (human)): 14%
kinase still bound, per cent of control (MAP2K6 (human)): 73%
kinase still bound, per cent of control (PRKCE (human)): 100%
kinase still bound, per cent of control (CSNK1A1L (human)): 100%
kinase still bound, per cent of control (FLT4 (human)): 100%
kinase still bound, per cent of control (EPHB2 (human)): 100%
kinase still bound, per cent of control (CSNK2A1 (human)): 65%
kinase still bound, per cent of control (PDGFRA (human)): 100%
kinase still bound, per cent of control [1]: 100%
kinase still bound, per cent of control (DYRK1B (human)): 100%
kinase still bound, per cent of control (STK25 (human)): 90%
kinase still bound, per cent of control (CDK7 (human)): 64%
kinase still bound, per cent of control (AURKA (human)): 100%
kinase still bound, per cent of control (TEK (human)): 100%
kinase still bound, per cent of control (PRKD1 (human)): 100%
kinase still bound, per cent of control (TBK1 (human)): 96%
kinase still bound, per cent of control (PRKG2 (human)): 100%
kinase still bound, per cent of control (PRKACA (human)): 100%
kinase still bound, per cent of control (MAP4K2 (human)): 82%
kinase still bound, per cent of control (DMPK (human)): 92%
kinase still bound, per cent of control (IKBKE (human)): 98%
kinase still bound, per cent of control (NEK6 (human)): 100%
kinase still bound, per cent of control (TNK1 (human)): 80%
kinase still bound, per cent of control (MAP4K5 (human)): 100%
kinase still bound, per cent of control (EPHA3 (human)): 100%
kinase still bound, per cent of control (STK38 (human)): 100%

Cn1cc(C2=C(c3ccc(Cl)cc3Cl)C(=O)NC2=O)c2ccccc21
kinase still bound, per cent of control (MELK (human)): 100%
kinase still bound, per cent of control (PTK2B (human)): 94%
kinase still bound, per cent of control (STK24 (human)): 69%
kinase still bound, per cent of control (RPS6KA6 KD2 (human)): 55%
kinase still bound, per cent of control (FES (human)): 100%
kinase still bound, per cent of control (NTRK1 (human)): 77%
kinase still bound, per cent of control (STK17B (human)): 100%
kinase still bound, per cent of control (STK11 (human)): 60%
kinase still bound, per cent of control (STK36 (human)): 100%
kinase still bound, per cent of control (DCLK2 (human)): 100%
kinase still bound, per cent of control (ACVR1 (human)): 100%
kinase still bound, per cent of control (LATS2 (human)): 100%
kinase still bound, per cent of control (MAPK7 (human)): 79%
kinase still bound, per cent of control (CDK15 (human)): 66%
kinase still bound, per cent of control (CDC42BPB (human)): 97%
kinase still bound, per cent of control (PIK3CG (human)): 93%
kinase still bound, per cent of control (MAP2K6 (human)): 57%
kinase still bound, per cent of control (PRKCE (human)): 94%
kinase still bound, per cent of control (CSNK1A1L (human)): 100%
kinase still bound, per cent of control (FLT4 (human)): 97%
kinase still bound, per cent of control (EPHB2 (human)): 100%
kinase still bound, per cent of control (CSNK2A1 (human)): 35%
kinase still bound, per cent of control (PDGFRA (human)): 100%
kinase still bound, per cent of control [1]: 100%
kinase still bound, per cent of control (DYRK1B (human)): 2.2%
kinase still bound, per cent of control (MLTK (human)): 93%
kinase still bound, per cent of control (STK25 (human)): 76%
kinase still bound, per cent of control (CDK7 (human)): 43%
kinase still bound, per cent of control (AURKA (human)): 100%
kinase still bound, per cent of control (TEK (human)): 73%
kinase still bound, per cent of control (PRKD1 (human)): 100%
kinase still bound, per cent of control (TBK1 (human)): 90%
kinase still bound, per cent of control (PRKG2 (human)): 73%
kinase still bound, per cent of control (PRKACA (human)): 100%
kinase still bound, per cent of control (MAP4K2 (human)): 100%
kinase still bound, per cent of control (DMPK (human)): 98%
kinase still bound, per cent of control (IKBKE (human)): 85%
kinase still bound, per cent of control (NEK6 (human)): 91%
kinase still bound, per cent of control (TNK1 (human)): 88%
kinase still bound, per cent of control (MAP4K5 (human)): 83%
kinase still bound, per cent of control (EPHA3 (human)): 76%
kinase still bound, per cent of control (STK38 (human)): 100%
